In data set [1] the test system is patients with ALGS. The note with it: cited from earlier work.
Data set [2] is described as follows: Water content and water uptake of crystal modification 1 with relative humidity. Type of data set: physicochemical. An excerpt: Crystal modification 1 contains void volumes that are capable of containing up to about 2 moles of water associated with the crystal per mole of odevixibat, depending on the relative humidity. This form is therefore formally a channel hydrate. At about 30% relative humidity, however, crystal modification 1 contains a substantially stoichiometric amount of about 1.5 moles of water per mole of organic compound and is thus a sesquihydrate. The substantially stoichiometric amount of water is considered advantageous, as the water content of the crystals remains substantially constant even with humidity changes within the normal relative humidity range of about 30% to about 70% RH.
Whereas crystal modification 1 is a sesquihydrate containing about 3.5% (w/w) water at about 30% relative humidity (based on the total crystal weight), it has been observed that the crystal can take up an additional 1.5% (w/w) water when the humidity is increased up to 95% RH. The sorption and desorption of this additional water is fully reversible. The additional water may be adsorbed on the surface or may further fill the channels of the structure. […]

Read-outs that look alike come from different tables or passages of the source.

Take `CCCCC1(CCCC)CS(=O)(=O)c2ccc(N(C)C)cc2[C@@H](c2ccc(OCc3ccc(C[N+]45CCN(CC4)CC5)cc3)cc2)[C@H]1O` [maralixibat]: the transaminase levels result in data set [1] (patients with ALGS) is on record as “Elevations in transaminase levels have been reported”.

In the case of cholestyramine, the transaminase levels result in data set [1] (human, in vivo) is listed as “Elevations in transaminase levels have been reported”. On to `CCCCC1(CCCC)CN(c2ccccc2)c2cc(SC)c(OCC(=O)N[C@@H](C(=O)N[C@@H](CC)C(=O)O)c3ccc(O)cc3)cc2S(=O)(=O)N1` [crystal modification 1], for which the “water content (based on the total crystal weight)” value in data set [2] (about 30% relative humidity) is “about 3.5 % (w/w)”. In data set [2] (humidity increased up to 95% RH, fully reversible), the “additional water taken up” value is recorded as 1.5 % (w/w).

Values taken from US20240173333A1, “Treating Alagille Syndrome (ALGS)” (priority 2022, published 2024).
